Laboratory results taken from US12365696B2, “Small-molecule focal adhesion kinase (FAK) inhibitors” (DANA-FARBER CANCER INSTITUTE, INC., priority 2019, dated 2025).

Legend:
Experiment in all cases: KINOMEscan
Type in all cases: binding
FLT3(N841I) = FLT3(N841I) (Homo sapiens (Human), UniProt P36888, N841I); conditions: 10000 nM, read-out: Percent Control
MST1R = MST1R (Homo sapiens (Human), UniProt Q04912); conditions: 10000 nM, read-out: Percent Control
ULK2 = ULK2 (Homo sapiens (Human), UniProt Q8IYT8); conditions: ULK2, 10000 nM; read-out: Percent Control
[1] = target: RPS6KA5(Kin.Dom.1-N-terminal) (Homo sapiens (Human), UniProt O75582); conditions: 10000 nM, read-out: Percent Control
MARK4 = MARK4 (Homo sapiens (Human), UniProt Q96L34); conditions: MARK4, 10000 nM; read-out: Percent Control
MLK1 = MLK1 (Homo sapiens (Human), UniProt P80192); conditions: MLK1, 10000 nM; read-out: Percent Control
[2] = target: RSK2(Kin.Dom.1-N-terminal) (Homo sapiens (Human), UniProt P51812); conditions: 10000 nM, read-out: Percent Control
RIPK5 = RIPK5 (Homo sapiens (Human), UniProt Q6XUX3); conditions: RIPK5, 10000 nM; read-out: Percent Control
DAPK2 = DAPK2 (Homo sapiens (Human), UniProt Q9UIK4); conditions: DAPK2, 10000 nM; read-out: Percent Control
CDK8 = CDK8 (Homo sapiens (Human), UniProt P49336); conditions: CDK8, 10000 nM; read-out: Percent Control
[3] = target: JAK1(JH2domain-pseudokinase) (Homo sapiens (Human), UniProt P23458); conditions: 10000 nM, read-out: Percent Control
DMPK2 = DMPK2 (Homo sapiens (Human), UniProt Q6DT37); conditions: DMPK2, 10000 nM; read-out: Percent Control
WNK2 = WNK2 (Homo sapiens (Human), UniProt Q9Y3S1); conditions: WNK2, 10000 nM; read-out: Percent Control
FLT3(D835V) = FLT3(D835V) (Homo sapiens (Human), UniProt P36888, D835V); conditions: 10000 nM, read-out: Percent Control
CAMKK1 = CAMKK1 (Homo sapiens (Human), UniProt Q8N5S9); conditions: CAMKK1, 10000 nM; read-out: Percent Control
MYLK = MYLK (Homo sapiens (Human), UniProt Q15746); conditions: 10000 nM, read-out: Percent Control
YSK1 = YSK1 (Homo sapiens (Human), UniProt O00506); conditions: YSK1, 10000 nM; read-out: Percent Control
PDGFRA = PDGFRA (Homo sapiens (Human), UniProt P16234); conditions: 10000 nM, read-out: Percent Control
MLCK = MLCK (Homo sapiens (Human), UniProt Q32MK0); conditions: 10000 nM, read-out: Percent Control
ARK5 = ARK5 (Homo sapiens (Human), UniProt O60285); conditions: ARK5, 10000 nM; read-out: Percent Control
SIK2 = SIK2 (Homo sapiens (Human), UniProt Q9H0K1); conditions: SIK2, 10000 nM; read-out: Percent Control
HPK1 = HPK1 (Homo sapiens (Human), UniProt Q92918); conditions: HPK1, 10000 nM; read-out: Percent Control
LKB1 = LKB1 (Homo sapiens (Human), UniProt Q15831); conditions: LKB1, 10000 nM; read-out: Percent Control
FGFR2 = FGFR2 (Homo sapiens (Human), UniProt P21802); conditions: FGFR2, 10000 nM; read-out: Percent Control
ACVR1 = ACVR1 (Homo sapiens (Human), UniProt Q04771); conditions: ACVR1, 10000 nM; read-out: Percent Control
PKAC-beta = PKAC-beta (Homo sapiens (Human), UniProt P22694); conditions: 10000 nM, read-out: Percent Control
EPHA7 = EPHA7 (Homo sapiens (Human), UniProt Q15375); conditions: EPHA7, 10000 nM; read-out: Percent Control
AMPK-alpha1 = AMPK-alpha1 (Homo sapiens (Human), UniProt Q13131); conditions: AMPK-alpha1, 10000 nM; read-out: Percent Control
YANK2 = YANK2 (Homo sapiens (Human), UniProt Q9NY57); conditions: YANK2, 10000 nM; read-out: Percent Control
MST1 = MST1 (Homo sapiens (Human), UniProt Q13043); conditions: MST1, 10000 nM; read-out: Percent Control
FGR = FGR (Homo sapiens (Human), UniProt P09769); conditions: 10000 nM, read-out: Percent Control
EGFR(S752-I759del) = EGFR(S752-I759del) (Homo sapiens (Human), UniProt P00533, DEL752-759); conditions: 10000 nM, read-out: Percent Control
PFTK1 = PFTK1 (Homo sapiens (Human), UniProt O94921); conditions: PFTK1, 10000 nM; read-out: Percent Control
ACVR1B = ACVR1B (Homo sapiens (Human), UniProt P36896); conditions: 10000 nM, read-out: Percent Control

Sequence of MYLK (Q15746 whole entry): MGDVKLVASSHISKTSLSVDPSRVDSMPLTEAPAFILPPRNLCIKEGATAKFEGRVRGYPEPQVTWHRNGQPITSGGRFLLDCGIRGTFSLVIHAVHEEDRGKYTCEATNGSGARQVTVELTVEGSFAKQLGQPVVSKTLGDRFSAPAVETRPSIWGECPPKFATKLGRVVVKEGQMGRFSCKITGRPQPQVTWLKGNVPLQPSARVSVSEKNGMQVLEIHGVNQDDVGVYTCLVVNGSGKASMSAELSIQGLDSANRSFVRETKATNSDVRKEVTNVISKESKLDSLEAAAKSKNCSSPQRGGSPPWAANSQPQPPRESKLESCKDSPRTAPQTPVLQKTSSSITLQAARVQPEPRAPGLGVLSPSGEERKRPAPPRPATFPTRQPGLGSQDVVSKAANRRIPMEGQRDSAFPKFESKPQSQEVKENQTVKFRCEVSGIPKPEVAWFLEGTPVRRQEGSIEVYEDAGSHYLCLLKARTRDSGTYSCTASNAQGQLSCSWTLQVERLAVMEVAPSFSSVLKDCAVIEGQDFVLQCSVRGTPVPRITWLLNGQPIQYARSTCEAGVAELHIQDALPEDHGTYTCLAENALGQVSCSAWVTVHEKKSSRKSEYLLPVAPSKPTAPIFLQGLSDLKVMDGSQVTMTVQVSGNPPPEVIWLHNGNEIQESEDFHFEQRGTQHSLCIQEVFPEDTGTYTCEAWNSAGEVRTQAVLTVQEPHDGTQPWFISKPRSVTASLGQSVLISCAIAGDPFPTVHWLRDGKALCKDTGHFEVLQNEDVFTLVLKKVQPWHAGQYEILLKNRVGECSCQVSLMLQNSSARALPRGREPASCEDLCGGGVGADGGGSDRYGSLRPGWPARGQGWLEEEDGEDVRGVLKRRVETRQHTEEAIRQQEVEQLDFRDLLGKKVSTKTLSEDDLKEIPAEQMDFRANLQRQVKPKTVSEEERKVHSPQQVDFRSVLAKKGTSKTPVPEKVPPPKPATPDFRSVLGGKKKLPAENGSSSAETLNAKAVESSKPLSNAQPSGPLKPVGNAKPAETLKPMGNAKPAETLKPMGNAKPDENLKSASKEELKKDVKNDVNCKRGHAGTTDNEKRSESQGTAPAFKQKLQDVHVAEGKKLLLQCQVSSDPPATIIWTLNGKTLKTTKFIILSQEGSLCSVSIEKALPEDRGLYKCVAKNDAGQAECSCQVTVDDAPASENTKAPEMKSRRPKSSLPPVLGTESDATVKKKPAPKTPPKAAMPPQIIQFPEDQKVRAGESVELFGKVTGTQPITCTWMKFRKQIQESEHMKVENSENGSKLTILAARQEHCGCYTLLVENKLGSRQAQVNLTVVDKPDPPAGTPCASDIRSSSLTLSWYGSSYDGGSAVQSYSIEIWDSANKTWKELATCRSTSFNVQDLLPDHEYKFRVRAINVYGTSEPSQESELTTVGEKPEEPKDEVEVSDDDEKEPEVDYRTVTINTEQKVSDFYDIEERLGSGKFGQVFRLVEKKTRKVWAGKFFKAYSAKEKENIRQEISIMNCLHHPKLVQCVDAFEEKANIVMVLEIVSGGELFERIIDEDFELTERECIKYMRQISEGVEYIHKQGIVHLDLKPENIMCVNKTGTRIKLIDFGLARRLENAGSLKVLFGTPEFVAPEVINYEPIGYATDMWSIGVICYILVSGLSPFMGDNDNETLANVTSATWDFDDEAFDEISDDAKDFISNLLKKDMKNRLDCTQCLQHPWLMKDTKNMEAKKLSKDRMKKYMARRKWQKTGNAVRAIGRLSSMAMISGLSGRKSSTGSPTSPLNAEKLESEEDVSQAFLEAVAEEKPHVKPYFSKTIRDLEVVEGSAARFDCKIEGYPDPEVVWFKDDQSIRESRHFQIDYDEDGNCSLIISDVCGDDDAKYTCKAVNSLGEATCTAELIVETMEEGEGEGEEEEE
Sequence of CDK8 (P49336 whole entry): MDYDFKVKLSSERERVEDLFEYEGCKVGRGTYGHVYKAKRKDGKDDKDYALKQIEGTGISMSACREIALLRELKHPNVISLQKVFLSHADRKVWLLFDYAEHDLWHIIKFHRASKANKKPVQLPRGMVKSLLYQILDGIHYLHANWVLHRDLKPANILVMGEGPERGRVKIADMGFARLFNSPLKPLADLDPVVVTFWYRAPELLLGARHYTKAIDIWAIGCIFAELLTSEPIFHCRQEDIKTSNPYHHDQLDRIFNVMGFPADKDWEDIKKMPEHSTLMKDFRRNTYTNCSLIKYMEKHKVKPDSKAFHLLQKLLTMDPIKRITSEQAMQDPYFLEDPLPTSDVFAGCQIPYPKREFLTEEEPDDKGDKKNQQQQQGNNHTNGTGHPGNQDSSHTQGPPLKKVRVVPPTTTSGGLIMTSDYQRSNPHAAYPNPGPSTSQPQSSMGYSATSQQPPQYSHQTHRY
Sequence of PDGFRA (P16234 24-1089): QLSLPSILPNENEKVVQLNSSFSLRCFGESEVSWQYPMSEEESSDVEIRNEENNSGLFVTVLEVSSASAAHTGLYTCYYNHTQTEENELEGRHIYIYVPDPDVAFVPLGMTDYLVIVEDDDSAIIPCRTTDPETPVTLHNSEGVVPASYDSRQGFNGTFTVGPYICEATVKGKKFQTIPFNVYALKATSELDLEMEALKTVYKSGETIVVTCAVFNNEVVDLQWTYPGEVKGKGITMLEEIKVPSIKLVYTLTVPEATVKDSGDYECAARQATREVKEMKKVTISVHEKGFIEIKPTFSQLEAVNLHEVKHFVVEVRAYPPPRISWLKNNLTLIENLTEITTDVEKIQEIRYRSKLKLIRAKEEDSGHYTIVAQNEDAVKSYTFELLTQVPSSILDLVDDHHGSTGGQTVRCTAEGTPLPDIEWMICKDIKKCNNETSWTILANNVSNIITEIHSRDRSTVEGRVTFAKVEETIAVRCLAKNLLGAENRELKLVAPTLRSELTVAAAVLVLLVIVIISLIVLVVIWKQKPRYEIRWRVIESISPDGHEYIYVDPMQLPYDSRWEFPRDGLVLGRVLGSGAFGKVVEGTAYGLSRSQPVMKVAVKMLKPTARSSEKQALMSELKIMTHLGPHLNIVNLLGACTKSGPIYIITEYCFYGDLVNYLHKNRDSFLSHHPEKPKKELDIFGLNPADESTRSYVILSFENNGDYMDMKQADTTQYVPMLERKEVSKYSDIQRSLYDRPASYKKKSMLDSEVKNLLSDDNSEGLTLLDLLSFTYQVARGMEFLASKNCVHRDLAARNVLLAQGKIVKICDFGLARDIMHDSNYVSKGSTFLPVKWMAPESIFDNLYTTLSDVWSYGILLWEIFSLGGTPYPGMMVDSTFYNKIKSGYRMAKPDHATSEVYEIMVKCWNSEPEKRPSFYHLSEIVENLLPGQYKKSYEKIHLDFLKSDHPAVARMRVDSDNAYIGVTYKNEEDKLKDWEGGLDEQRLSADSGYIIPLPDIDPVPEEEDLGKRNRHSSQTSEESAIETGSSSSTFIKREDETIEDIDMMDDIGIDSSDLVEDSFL
Sequence of SIK2 (Q9H0K1 whole entry): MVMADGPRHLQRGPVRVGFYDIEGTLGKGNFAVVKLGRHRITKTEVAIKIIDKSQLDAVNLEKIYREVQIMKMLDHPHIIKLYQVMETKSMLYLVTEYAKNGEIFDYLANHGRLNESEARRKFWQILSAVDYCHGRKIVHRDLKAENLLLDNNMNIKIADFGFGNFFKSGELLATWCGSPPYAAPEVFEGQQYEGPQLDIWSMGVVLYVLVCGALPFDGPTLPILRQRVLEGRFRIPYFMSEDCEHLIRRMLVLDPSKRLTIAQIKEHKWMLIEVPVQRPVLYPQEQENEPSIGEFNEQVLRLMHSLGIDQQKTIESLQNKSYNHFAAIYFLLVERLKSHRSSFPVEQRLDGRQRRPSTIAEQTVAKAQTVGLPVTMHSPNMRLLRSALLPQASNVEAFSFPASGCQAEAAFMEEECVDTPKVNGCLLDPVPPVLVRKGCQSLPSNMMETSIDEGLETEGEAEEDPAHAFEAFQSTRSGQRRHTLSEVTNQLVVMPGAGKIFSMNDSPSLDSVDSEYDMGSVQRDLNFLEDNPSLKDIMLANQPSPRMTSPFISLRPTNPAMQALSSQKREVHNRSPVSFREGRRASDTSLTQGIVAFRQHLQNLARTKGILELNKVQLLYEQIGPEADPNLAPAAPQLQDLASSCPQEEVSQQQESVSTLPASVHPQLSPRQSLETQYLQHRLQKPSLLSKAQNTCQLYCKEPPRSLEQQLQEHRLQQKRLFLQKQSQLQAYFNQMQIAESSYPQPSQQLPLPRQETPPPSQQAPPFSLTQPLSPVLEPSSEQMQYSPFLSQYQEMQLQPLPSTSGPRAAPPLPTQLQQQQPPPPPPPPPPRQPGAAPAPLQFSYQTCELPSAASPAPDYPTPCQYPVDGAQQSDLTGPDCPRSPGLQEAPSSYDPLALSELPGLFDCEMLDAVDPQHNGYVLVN
Sequence of DAPK2 (Q9UIK4 whole entry): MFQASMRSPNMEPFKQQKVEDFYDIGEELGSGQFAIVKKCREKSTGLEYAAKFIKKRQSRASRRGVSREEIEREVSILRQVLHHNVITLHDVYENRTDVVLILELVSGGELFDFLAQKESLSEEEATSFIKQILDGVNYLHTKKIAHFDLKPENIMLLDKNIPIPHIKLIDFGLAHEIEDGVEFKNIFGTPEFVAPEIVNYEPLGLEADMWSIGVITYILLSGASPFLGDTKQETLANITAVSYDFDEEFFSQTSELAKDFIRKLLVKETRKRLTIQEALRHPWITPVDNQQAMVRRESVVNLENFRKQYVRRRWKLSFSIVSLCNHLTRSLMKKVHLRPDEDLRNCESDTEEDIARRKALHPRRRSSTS
Sequence of RSK2(Kin.Dom.1-N-terminal) (P51812 68-327): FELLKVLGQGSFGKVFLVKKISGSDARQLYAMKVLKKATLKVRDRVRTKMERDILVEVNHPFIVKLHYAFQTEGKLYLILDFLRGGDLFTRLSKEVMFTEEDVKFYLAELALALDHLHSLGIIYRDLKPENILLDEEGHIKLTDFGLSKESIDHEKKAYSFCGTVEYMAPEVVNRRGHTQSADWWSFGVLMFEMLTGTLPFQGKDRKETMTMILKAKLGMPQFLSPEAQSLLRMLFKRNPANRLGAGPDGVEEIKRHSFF

`COc1cc(N2CCC(N3CCN(C)CC3)CC2)ccc1Nc1ncc2c(n1)N(C)c1sc(C)nc1C(=O)N2` [Compound 3, 6-((2-methoxy-4-(4-(4-methylpiperazin-1-yl)piperidin-1-yl)phenyl)amino)-2,4-dimethyl-4,9-dihydro-10H-pyrimido[5,4-b]thiazolo[5,4-e][1,4]diazepin-10-one] was tested. Which remaining binding at 10 µM (FLT3(N841I)) did it give?
The remaining binding at 10 µM was 98%.

And the remaining binding at 10 µM (MST1R)?
The remaining binding at 10 µM was 90%.

What about the remaining binding at 10 µM (ULK2) of the same compound?
Its remaining binding at 10 µM is 100%.

What about the remaining binding at 10 µM [1] of the same compound?
The remaining binding at 10 µM was 70%.

And the remaining binding at 10 µM (MARK4)?
The remaining binding at 10 µM was 83%.

What about the remaining binding at 10 µM (MLK1) of the same compound?
Its remaining binding at 10 µM is 94%.

And the remaining binding at 10 µM [2]?
Its remaining binding at 10 µM is 99%.

What about the remaining binding at 10 µM (RIPK5) of the same compound?
Its remaining binding at 10 µM is 100%.

And the remaining binding at 10 µM (DAPK2)?
Its remaining binding at 10 µM is 60%.

And the remaining binding at 10 µM (CDK8)?
The remaining binding at 10 µM was 78%.

And the remaining binding at 10 µM [3]?
The remaining binding at 10 µM was 85%.

And the remaining binding at 10 µM (DMPK2)?
The remaining binding at 10 µM was 91%.

What about the remaining binding at 10 µM (WNK2) of the same compound?
Its remaining binding at 10 µM is 74%.

And the remaining binding at 10 µM (FLT3(D835V))?
The remaining binding at 10 µM was 57%.

And the remaining binding at 10 µM (CAMKK1)?
Its remaining binding at 10 µM is 84%.

And the remaining binding at 10 µM (MYLK)?
Its remaining binding at 10 µM is 53%.

What about the remaining binding at 10 µM (YSK1) of the same compound?
The remaining binding at 10 µM was 79%.

And the remaining binding at 10 µM (PDGFRA)?
Its remaining binding at 10 µM is 100%.

And the remaining binding at 10 µM (MLCK)?
Its remaining binding at 10 µM is 94%.

And the remaining binding at 10 µM (ARK5)?
Its remaining binding at 10 µM is 86%.

And the remaining binding at 10 µM (SIK2)?
Its remaining binding at 10 µM is 86%.

What about the remaining binding at 10 µM (HPK1) of the same compound?
The remaining binding at 10 µM was 68%.

What about the remaining binding at 10 µM (LKB1) of the same compound?
Its remaining binding at 10 µM is 44%.

And the remaining binding at 10 µM (FGFR2)?
Its remaining binding at 10 µM is 80%.

What about the remaining binding at 10 µM (ACVR1) of the same compound?
Its remaining binding at 10 µM is 93%.

What about the remaining binding at 10 µM (PKAC-beta) of the same compound?
Its remaining binding at 10 µM is 82%.

What about the remaining binding at 10 µM (EPHA7) of the same compound?
Its remaining binding at 10 µM is 71%.

What about the remaining binding at 10 µM (AMPK-alpha1) of the same compound?
The remaining binding at 10 µM was 79%.

What about the remaining binding at 10 µM (YANK2) of the same compound?
Its remaining binding at 10 µM is 85%.

And the remaining binding at 10 µM (MST1)?
The remaining binding at 10 µM was 89%.

And the remaining binding at 10 µM (FGR)?
The remaining binding at 10 µM was 77%.

What about the remaining binding at 10 µM (EGFR(S752-I759del)) of the same compound?
The remaining binding at 10 µM was 47%.

And the remaining binding at 10 µM (PFTK1)?
The remaining binding at 10 µM was 90%.

And the remaining binding at 10 µM (ACVR1B)?
Its remaining binding at 10 µM is 80%.

What does the source list for `COc1cc(N2CCC(N3CCN(C)CC3)CC2)ccc1Nc1ncc2c(n1)N(C)c1sc(C)nc1C(=O)N2C` [Compound 5, 6-((2-methoxy-4-(4-(4-methylpiperazin-1-yl)piperidin-1-yl)phenyl)amino)-2,4,9-trimethyl-4,9-dihydro-10H-pyrimido[5,4-b]thiazolo[5,4-e][1,4]diazepin-10-one]?
remaining binding at 10 µM (FLT3(N841I)): 83%; remaining binding at 10 µM (MST1R): 100%; remaining binding at 10 µM (ULK2): 81%; remaining binding at 10 µM [1]: 91%; remaining binding at 10 µM (MARK4): 87%; remaining binding at 10 µM (MLK1): 41%; remaining binding at 10 µM [2]: 97%; remaining binding at 10 µM (RIPK5): 60%; remaining binding at 10 µM (DAPK2): 83%; remaining binding at 10 µM (CDK8): 100%; remaining binding at 10 µM [3]: 89%; remaining binding at 10 µM (DMPK2): 93%; remaining binding at 10 µM (WNK2): 100%; remaining binding at 10 µM (FLT3(D835V)): 97%; remaining binding at 10 µM (CAMKK1): 100%; remaining binding at 10 µM (MYLK): 36%; remaining binding at 10 µM (YSK1): 100%; remaining binding at 10 µM (PDGFRA): 88%; remaining binding at 10 µM (MLCK): 100%; remaining binding at 10 µM (ARK5): 94%; remaining binding at 10 µM (SIK2): 99%; remaining binding at 10 µM (HPK1): 100%; remaining binding at 10 µM (LKB1): 100%; remaining binding at 10 µM (FGFR2): 100%; remaining binding at 10 µM (ACVR1): 93%; remaining binding at 10 µM (PKAC-beta): 100%; remaining binding at 10 µM (EPHA7): 97%; remaining binding at 10 µM (AMPK-alpha1): 91%; remaining binding at 10 µM (YANK2): 100%; remaining binding at 10 µM (MST1): 100%; remaining binding at 10 µM (FGR): 100%; remaining binding at 10 µM (EGFR(S752-I759del)): 100%; remaining binding at 10 µM (PFTK1): 100%; remaining binding at 10 µM (ACVR1B): 95%
